Laboratory results published in patent US11066368B2, “Process for the preparation and particle size reduction of pirfenidone” (Laurus Labs Limited, priority 2016, dated 2021).

How the values were obtained:
[1] = Dust explosion test by Modified Hartmann Apparatus; assay type: physicochemical; design: key to Dust explosion class (overall): St0H: No fire or explosion; St1H: Dust fire or mild explosion; St2H: Violent explosion; conditions: for Dust explosion Class: sieved through 63μ
Protocol: This test was performed based on procedures from VDI 2263, Part 1 (Section 2.1.1), “Dust fires and dust explosions; hazards, assessment, protective measures”, using a Modified Hartmann Apparatus. Pirfenidone was dried at 50° C. under vacuum, sieved through 63μ sieve. Weighed amount of product was charged into a modified hartmann tube of 1.2 liter volume. The product was converted into a dust cloud in glass cylindrical tube with compressed air and electrodes with continuous spark was used as ignition source to ignite the dust cloud. Based on dust fire or extent of opening of the hinged cover rating 0, 1 or 2 are assigned.

[2] = Particle size distribution after wet milling in colloid mill (IKA MK 2000/05); assay type: physicochemical; conditions: water
Protocol: (§1) As used herein, the term “particle size distribution” is expressed in terms of D90, D50 and D10, which corresponds to the diameter of 90 percent by volume of the particles, 50 percent by volume of the particles and 10 percent by volume of the particles are present, respectively.
(§2) The particle size distribution of pirfenidone is measured utilizing: Instrument model: Malvern; Mastersizer 3000; particle refraction index of sample: 1.700; Absorption: 0.01 and Analysis model: general purpose, normal sensitivity, non-spherical particles.
Pirfenidone (Particle size distribution: D10: 1330 μm; D50: 1950 μm and D90: 2840 μm) and Water (3 vol) were charged into IKA colloid mill at 25° C. to 35° C. and circulated the reaction mass at 25° C. to 35° C. till required particle size was obtained. Particle size distribution of the sample with different time interval was monitored by collecting the sample from reaction mass. After achieving the required particle size, stirred the reaction mixture for 30-60 min at 25° C. to 35° C. Further, the reaction mixture temperature was allowed to cool to 0° C. to 5° C. and stirred for 2-3 hrs at same temperature. Filter the solid and washed with the wet cake with chilled water (0.5 vol), dried the solid in an oven under vacuum at 60° C. for 4-6 hours.
The following examples were performed using the above described process with different circulation time and different rpm and obtained results are tabulated as below: […]

[3] = Particle size distribution after ultra sonication by sonoprocessor (RTUL 10SP-20-3000-SD); assay type: physicochemical; conditions: ultra sonication in water
Protocol: as §1, §2
Water (300 mL) and Pirfenidone (200 gr; Particle size distribution: D10: 1330 μm; D50: 1950 μm and D90: 2840 μm) were charged into reaction vessel at 25° C. to 35° C. and was placed Sonoprocessor into the reaction mass till required particle size was obtained at 25° C. to 35° C. Particle size distribution of the sample with different time interval was monitored by collecting the sample from reaction mass. After achieving the required particle size, stirred the reaction mixture for 30-60 min at 25° C. to 35° C. Further, the reaction mixture temperature was allowed to cool to 0° C. to 5° C. and stirred for 2-3 hrs at same temperature. Filter the solid and washed the wet cake with chilled water (100 mL), dried the solid in an oven under vacuum at 60° C. for 4-6 hours.
The following examples were performed using the above described process with different rpm and time; the obtained results are tabulated below: […]

[4] = milled through a loop mill, US 8,519,140; cited from earlier work
[5] = 3000 rpm, circulation time 60 mim
[6] = 3000 rpm, circulation time 120 mim
[7] = 3000 rpm, circulation time 30 min
[8] = 5000 rpm, circulation time 5 min
[9] = 5000 rpm, circulation time 60 min
[10] = 6000 rpm, circulation time 45 min
[11] = 6000 rpm, circulation time 1 hour
[12] = 6000 rpm, circulation time 2 hours, listed as 1A, 20 kg pirfenidone input
[13] = 6000 rpm, circulation time 2 hours, listed as 1B, 200 kg pirfenidone input
[14] = 6000 rpm, circulation time 3 hours, listed as 1A, 20 kg pirfenidone input
[15] = 6000 rpm, circulation time 3 hours, listed as 1B, 200 kg pirfenidone input
[16] = 6000 rpm, circulation time 4 hours, listed as 1A, 20 kg pirfenidone input
[17] = 6000 rpm, circulation time 4 hours, listed as 1B, 200 kg pirfenidone input
[18] = 6000 rpm, circulation time 5 hours, listed as 1A, 20 kg pirfenidone input
[19] = 6000 rpm, circulation time 5 hours, listed as 1B, 200 kg pirfenidone input
[20] = 6000 rpm, circulation time 6 hours, listed as 1A, 20 kg pirfenidone input
[21] = 6000 rpm, circulation time 6 hours, listed as 1B, 200 kg pirfenidone input
[22] = 6000 rpm, circulation time 7 hours
[23] = 6000 rpm, circulation time 8 hours, listed as 1B, 200 kg pirfenidone input
[24] = 6000 rpm, circulation time 8 hours, listed as 1C, 80 kg pirfenidone input
[25] = 6000 rpm, circulation time 9 hours
[26] = 6000 rpm, circulation time 10 hours, listed as 1B, 200 kg pirfenidone input
[27] = 6000 rpm, circulation time 10 hours, listed as 1C, 80 kg pirfenidone input
[28] = 6000 rpm, circulation time 12 hours, listed as 1B, 200 kg pirfenidone input
[29] = 6000 rpm, circulation time 12 hours, listed as 1C, 80 kg pirfenidone input
[30] = 6000 rpm, circulation time 14 hours
[31] = 6000 rpm, circulation time 16 hours
[32] = 6000 rpm, circulation time 19 hours
[33] = 8000 rpm, circulation time 5 min

## Cc1ccc(=O)n(-c2ccccc2)c1 [Pirfenidone, 5-methyl-1-phenyl-2-1(H)-pyridone]
[1]; Wt. of sample 120 mg, eq. dust concentration 100 g/m3
  Dust explosion Class: 1
[1]; Wt. of sample 240 mg, eq. dust concentration 200 g/m3
  Dust explosion Class: 2
[1]; summary of safety studies
  Dust explosion class (overall): St2H
[2]; [5]
  PSD D10: 12 μm
  PSD D50: 33 μm
  PSD D90: 123 μm
[2]; [6]
  PSD D10: 13 μm
  PSD D50: 33 μm
  PSD D90: 82 μm
[2]; [7]
  PSD D10: 28 μm
  PSD D50: 87 μm
  PSD D90: 185 μm
[2]; [8]
  PSD D10: 11 μm
  PSD D50: 40 μm
  PSD D90: 99 μm
[2]; [9]
  PSD D10: 11 μm
  PSD D50: 36 μm
  PSD D90: 89 μm
[2]; [10]
  PSD D10: 41 μm
  PSD D50: 48 μm
  PSD D90: 285 μm
[2]; [11]
  PSD D10: 30 μm
  PSD D50: 105 μm
  PSD D90: 206 μm
[2]; [12]
  PSD D10: 28 μm
  PSD D50: 72 μm
  PSD D90: 165 μm
[2]; [13]
  PSD D10: 34 μm
  PSD D50: 124 μm
  PSD D90: 257 μm
[2]; [14]
  PSD D10: 26 μm
  PSD D50: 61 μm
  PSD D90: 143 μm
[2]; [15]
  PSD D10: 34 μm
  PSD D50: 116 μm
  PSD D90: 236 μm
[2]; [16]
  PSD D10: 23 μm
  PSD D50: 54 μm
  PSD D90: 129 μm
[2]; [17]
  PSD D10: 32 μm
  PSD D50: 106 μm
  PSD D90: 222 μm
[2]; [18]
  PSD D10: 22 μm
  PSD D50: 53 μm
  PSD D90: 117 μm
[2]; [19]
  PSD D10: 33 μm
  PSD D50: 106 μm
  PSD D90: 217 μm
[2]; [20]
  PSD D10: 21 μm
  PSD D50: 49 μm
  PSD D90: 107 μm
[2]; [21]
  PSD D10: 29 μm
  PSD D50: 101 μm
  PSD D90: 200 μm
[2]; [22]
  PSD D10: 31 μm
  PSD D50: 94 μm
  PSD D90: 200 μm
[2]; [23]
  PSD D10: 28 μm
  PSD D50: 84 μm
  PSD D90: 187 μm
[2]; [24]
  PSD D10: 21 μm
  PSD D50: 57 μm
  PSD D90: 132 μm
[2]; [25]
  PSD D10: 28 μm
  PSD D50: 80 μm
  PSD D90: 180 μm
[2]; [26]
  PSD D10: 27 μm
  PSD D50: 69 μm
  PSD D90: 155 μm
[2]; [27]
  PSD D10: 22 μm
  PSD D50: 55 μm
  PSD D90: 122 μm
[2]; [28]
  PSD D10: 25 μm
  PSD D50: 61 μm
  PSD D90: 150 μm
[2]; [29]
  PSD D10: 22 μm
  PSD D50: 54 μm
  PSD D90: 121 μm
[2]; [30]
  PSD D10: 21 μm
  PSD D50: 47 μm
  PSD D90: 98 μm
[2]; [31]
  PSD D10: 21 μm
  PSD D50: 47 μm
  PSD D90: 96 μm
[2]; [32]
  PSD D10: 22 μm
  PSD D50: 46 μm
  PSD D90: 93 μm
[2]; [33]
  PSD D10: 9 μm
  PSD D50: 35 μm
  PSD D90: 85 μm
[3]; sonication time 30 min
  PSD D10: 44 μm
  PSD D50: 145 μm
  PSD D90: 245 μm
[3]; sonication time 60 min
  PSD D10: 26 μm
  PSD D50: 101 μm
  PSD D90: 189 μm
[3]; sonication time 120 min
  PSD D10: 19 μm
  PSD D50: 68 μm
  PSD D90: 150 μm
[3]; sonication time 180 min
  PSD D10: 13 μm
  PSD D50: 48 μm
  PSD D90: 109 μm
[4]
  particle size: less than 150 μm
